Source: patent US20110135651A1, “METHOD AND COMPOSITION FOR ENHANCING HEMATOPOIETIC STEM CELL MOBILIZATION” (Children's Hospital Medical Center, priority 2008, published 2011)
Blank lines part the entries; values can stand above or below the molecule they belong to.

Tests used:
[1] = target: epidermal growth factor receptor (EGFR), mouse, wild type, on hematopoietic stem and progenitor cells (mouse) (UniProt Q01279); assay: cell-based or functional assay
[2] = test system: hematopoietic stem and progenitor cells (HSPCs); assay: G-CSF induced HSPC mobilization, colony forming cell (CFC) assay of peripheral blood; assay type: in vivo, mice
Experimental: As mobilization efficiency of HSPC is a quantitative trait, quantitative trait locus (QTL) analysis was chosen as an approach to identify regulators of mobilization efficiency. Mice were mobilized with huG-CSF (Amgen) at 12.5 μg/ml in PBS/0.1% BSA and administered i.p. at 100 μg/kg/day once a day for 5 days and animals were analyzed on day 6. Murine recombinant EGF (0.2-3.6 μg/g) (Prepro tech, Rocky Hill, N.J.) was dissolved in PBS and administered i.p. on the last day of the G-CSF regimen. Erlotinib (2.5-100 mg/kg) was dissolved in methylcellulose and administered by gavage on day 3, 4, and 5 of the G-CSF regimen. A specific Cdc42 inhibitor (0.5 mg/ml) was dissolved in PBS containing 15% ethanol and administered by tail vain 18 h after the last G-CSF injection. Mobilization efficiency was determined with HSPC obtained approximately 14-16 hours after the last injection received by the group of mice.
Colony forming cell assays. 150 μl of peripheral blood (PB) was added to Hank's balanced salt solution (HBSS) and mixed with 4 ml of methylcellulose (Stem Cell Technologies) containing 50 ng/ml rm SCF, 10 ng/ml rm IL-3 and 10 ng/ml rh JL-6 and incubated at 37° C. Samples were plated in triplicate in 6 well plates (Falcon) and colonies of more than 50 cells were counted between 7 to 10 days. CFC counts were also determined in spleen (1×10^5) using the same protocol. The results are presented as mean±s.d. A paired student's t-test was used to determine the significance of the difference between means of two groups. Values were considered significant when p<0.05.

[3] = test system: hematopoietic stem cells; assay: Competitive transplantation of mobilized peripheral blood to measure stem cell frequency (donor chimerism); assay type: in vivo, mice
Experimental: Transplantations/Competitive transplantations. BM cells were harvested and pooled from the tibia and the femur of 6-8 week old mice (donor) as well as B6.5JL(BoyJ) (competitor) mice. […] BM cells were subsequently transplanted into the retro-orbital sinus in a volume of 200 μA in IMDM/2% FCS.
Flow cytometry. Immunostaining and flow cytometry analyses were performed according to standard procedures and analyzed on a FacsCanto flow cytometer (BD Biosciences). Anti-Ly5.2 (clone 104, BD Biosciences, FITC conjugated) and anti-Ly5.1 (clone A20, BD Biosciences, PE conjugated) monoclonal antibodies were used to distinguish donor from recipient and competitor cells. For lineage analysis in hematopoietic tissues, anti-CD3ε (clone 145-2C11, PE-Cy7 conjugated), anti-B220 (clone RA3-6B2, APC conjugated), anti-CD11b (clone M1/70, APC-Cy7 conjugated) and anti-Gr-1 (clone RB6-8C5, APC-Cy7 conjugated, all from BD Biosciences) were used.

[4] = test system: BM derived progenitor cells adhering to FBMD-1 stromal cells; assay: CAFC progenitor adhesion assay on FBMD-1 stroma; assay type: cell-based, mice; settings: BM derived HSPCs from G-CSF treated animals
Experimental: CAFC progenitor adhesion assays. FBMD-1 cells were seeded in IMDM supplemented with 15% FCS and 5% horse serum (Gibco) at a density of 1000 cells per well in a 96 well plate. BM cells were plated onto the FBMD-1 stroma cell line at 3000, 1500, 750 and 375 cells per well at 15 wells per cell concentration in CAFC medium (IMDM, supplemented with 20% horse serum (Gibco) and 10^−5 M hydrocortisone (Sigma)). To determine progenitor cell adhesion, non-adherent cells were washed off the FBMD-1 stroma after 2 hours and fresh CAFC medium was added to each well. The frequency of total HSPCs and adherent HSPCs was determined by counting the frequency of cobblestone areas at day 7 on the FBMD-1 stroma cell line.

[5] = test system: Cdc42; assay: Rho-GTPase effector domain pull-down assay, Cdc42; assay type: in vivo, mice; settings: for Cdc42 activity (GTP-bound form) in BM cells: in vivo in G-CSF treated animals, compared to G-CSF treatment alone (FIG. 7c, 7d)
Experimental: (§1) Rho-GTPase effector domain pull-down assays. Relative levels of GTP-bound RAC1, RAC2 and CDC42 were determined by an effector pull-down assay. Briefly, low density bone marrow cells (1×107) were lysed in a Mg2+ lysis/wash buffer (Upstate cell signaling solutions) containing 10% glycerol, 25 mM sodium fluoride, 1 mM sodium orthovanadate and a protease inhibitor cocktail (Roche Diagnostics). Samples were incubated with PAK-1 binding domain/agarose beads and bound (activated) as well as unbound (non-activated) Rho GTPases were probed by immunoblotting with antibodies specific for RAC1 (Upstate), RAC2 (Novus Biologicals) and CDC42 (BD Biosciences). Activated protein was normalized to total protein and β-actin (Sigma) and the relative amount was quantified by densitometry.

[6] = test system: Rac1; assay: Rho-GTPase effector domain pull-down assay, Rac1; design: species or system mice; settings: in vivo in G-CSF treated animals (data not shown)
Experimental: as §1

[7] = test system: Rac2; assay: Rho-GTPase effector domain pull-down assay, Rac2; design: species or system mice; settings: in vivo in G-CSF treated animals (data not shown)
Experimental: as §1

[8] = test system: EGFR; assay: EGFR expression in BM HSPCs by real time Q-RT-PCR; assay type: in vivo, mice; settings: upon G-CSF treatment (FIG. 3a)
Text: Whole genome expression analysis. RNA from sorted Lin-C-Kit+ cells were obtained with the Qiagen RNA assay micro kit according to the protocol of the manufacturer. RNA was subsequently linear amplified by the Affymetrix core at CCHMC and reverse transcribed with a Nugene Kit according to the manufacturer protocol. Labeled cDNA was then hybridized to and MOE430 array (Affymetrix) and raw expression data collected. Affymetrix .CEL files of the respective microarrays were imported into the statistical programming language R (www.r-project.org) using the affy Bioconductor (www.bioconductor.org) package. The data were then pre-processed (log2-transformed, background corrected, quantile normalized and summarized) using the rma function of the affy package. Affymetrix probes were filtered and re-grouped during summarization according to RefSeq annotation using custom chip description files (.CDF) for the MOE430 array provided by the Molecular and Behavioral Neuroscience Institute of the University of Michigan (Microarray Lab), http://brainarray.mbni.med.umich.edu/Brainarray/Database/CustomCDF/genomic_curated_CDF.asp). The expression level of the EGFR was subsequently confirmed by a Taqman real time PCR assay kit from Applied Biosystems (Assay ID: Mm01187863_g1)

mobilization efficiency of progenitor cells in G-CSF stimulated animals (CFC in peripheral blood) (fold reduction) [1]: 4
stem cell mobilization to PB (donor chimerism 3 months after competitive transplant) [1]: < 5 fold less
Molecule: Murine recombinant EGF (epidermal growth factor) (from UniProt P01132 977-1029) (ligand)

level of the GTP bound form of Rac1 [6]: did not detect a significant change
level of the GTP bound form of Rac2 [7]: did not detect a significant change
Molecule: EGF: Murine recombinant EGF (epidermal growth factor), activating ligand of EGFR
reduction of mobilization efficiency of progenitor cells ([2]; G-CSF stimulated animals, single dose EGF 0.8 μg/g on last day of G-CSF regimen (FIG. 3b)): approx. 4 fold
mobilization efficiency of progenitor cells ([2]; G-CSF stimulated animals, single dose EGF 0.2-1.0 on last injection day of G-CSF regimen (FIG. 3b)): dose-dependent inhibition
sensitivity to inhibition of mobilization efficiency by EGF ([2]; congenic line 1804 compared to B6 mice, G-CSF and EGF treatment (FIG. 3g)): significantly less sensitive
spontaneous mobilization ([2]; non-G-CSF treated animals, EGF dose range tested (data not shown)): did not restrict
mobilization efficiency ([2]; wa2+/- mice, G-CSF plus single injection of EGF on day 5 vs G-CSF alone (FIG. 3d)): unaffected
mobilization efficiency ([2]; wild type mice, G-CSF plus single injection of EGF on day 5 vs G-CSF alone (FIG. 3c)): significantly reduced
reduction of contribution to chimerism 3 months post transplant (stem cells mobilized to PB) ([3]; G-CSF plus EGF (0.8 μg/g) vs G-CSF alone, equal volumes of blood (FIG. 3f)): approx. 5 fold
adhesion of progenitor cells to stroma ([4]; EGF 200 ng/ml (FIG. 7a)): significantly enhanced adhesion
Cdc42 activity (GTP-bound form) in BM cells [5]: significant increase

level of the GTP bound form of Rac1 [6]: did not detect a significant change
level of the GTP bound form of Rac2 [7]: did not detect a significant change
Molecule: C#Cc1cccc(Nc2ncnc3cc(OCCOC)c(OCCOC)cc23)c1 [Erlotinib, reference compound]
mobilization efficiency of progenitor cells ([2]; Erlotinib 2.5-10 mg/kg over last 3 days of G-CSF regimen vs G-CSF (FIG. 5e)): significantly increased
mobilization efficiency of stem cells ([3]; Erlotinib 2.5-10 mg/kg over last 3 days of G-CSF regimen vs G-CSF, competitive transplantation read-out): significantly increased
adhesion of progenitor cells to stroma ([4]; Erlotinib 10 mM (FIG. 7b)): significantly reduced adhesion
Cdc42 activity (GTP-bound form) in BM cells [5]: significant decrease

B1: G-CSF: huG-CSF (Amgen), granulocyte colony-stimulating factor (protein, UniProt P09919 31-207, looked up)
Granulocyte …: TPLGPASSLPQSFLLKCLEQVRKIQGDGAALQEKLVSECATYKLCHPEELVLLGHSLGIPWAPLSSCPSQALQLAGCLSQLHSGLFLYQGLLQALEGISPELGPTLDTLQLDVADFATTIWQQMEELGMAPALQPTQGAMPAFASAFQRRAGGVLVASHLQSFLEVSYRVLRHLAQP
Cdc42 activity in LD-BM cells ([5]; B6 animals, G-CSF treated relative to control non-treated animals (FIG. 7e)): significantly increased
Cdc42 activity in LD-BM cells ([5]; line 1804 animals upon G-CSF treatment (FIG. 7e)): not being altered
EGFR expression levels in BM HSPCs [8]: decreased
